Data reported in patent EP0247464A1, “New quinolone compounds and a process for the preparation thereof” (FUJISAWA PHARMACEUTICAL CO., LTD., priority 1986, dated 1987).
Converted amounts (≈) assume the structure as drawn.

Assays:
Acute toxicity in mice = assay type: in vivo; details: 100 mg/kg injected into lateral vein, ICR-strain male mouse, 5 mice, observed for 7 days
Description: The test compound (16 mg) was dissolved in 1N NaOH (0.1 ml) and steril distilled water (3.9 ml).

Vibrio anguillarum NP-1 = test: Minimal Inhibitory Concentration (MIC), antibacterial activity against fish-disease strain; assay type: cell-based; details: NP1, 2.5% sodium chloride added Heart Infusion Agar, 20 hours incubation at 25°C
Description: MICs againstvibrio anguillarum originated in fish diseases were obtained by the following method. An overnight culture broth of each strain was diluted 10-fold (approximately 10^6 cells/ml) and was stamped on 2.5% sodium chloride added Heart Infusion Agar containing graded concentrations of the test compounds, and MICs were expressed in terms of pg/ml after 20 hours incubation at 25°C.

[1] = system: Mycoplasma pulmonis PG-22; test: Minimal Inhibitory Concentration (MIC), antimycoplasmal activity, agar dilution method; assay type: cell-based; details: PG22, 37°C for 3 to 4 days, 5 per cent carbon dioxide, lowest concentration completely inhibiting colony growth
Description: MICs of test compound were obtained by the agar dilution method.
Agar plates contained two-fold decremental dilutions of the test compound, ranging from 0.05 to 100 pg/ml. The inoculum (0.01 ml, containing approximately 10^5 CFU/ml of liquid medium which had been cultured at 37°C for 3 days) was plated on moisture-free media surfaces. Plates were placed in a humidified atmosphere of 5 per cent carbon dioxide and 95 per cent air, and incubated at 37°C for 3 to 4 days. The colonies grown on the plate were observed under a low microscopic magnification (x60).

## O=C(O)c1cn(C2CC2)c2c(F)c(N3CCNCC3)c(F)c(F)c2c1=O [compound (I-d), 1-Cyclopropyl-5,6,8-trifluoro-7-(1-piperazinyl)-4-quinolone-3-carboxylic acid]
Acute toxicity in mice
  Survivals / test mice: 5 / 5
Vibrio anguillarum NP-1
  MIC: 0.1 µg/mL (≈ 0.272 µM)
[1]
  MIC: 0.1 µg/mL (≈ 0.272 µM)
